Results taken from patent US8148424B2, “Tocopherols, tocotrienols, other chroman and side chain derivatives and uses thereof” (Research Development Foundation, priority 1998, dated 2012).
In brackets after ≈: the same amount, converted by molar mass. Like-named read-outs stand apart in the source and are kept apart here.

Assays:
[1] = system: human cancer cells from a wide variety of cell lineages; experiment: Apoptosis induction in a battery of tumor cells; format: cell-based; settings: breast, prostate, leukemia/lymphoid, cervical, ovarian, endometrial, colon, lung cell lines
Method: (§1) Cells were cultured at 1.5×10^5 cells/well in 12 well plates. Cells were allowed to adhere overnight, then incubated with novel test compounds at 0.01, 0.1, 1, 5, 10 & 20 μg/mL for 1, 2 and 3 days. After treatment, cells (floating+trypsin released adherent cells) were pelleted, washed and stained with 2 μg/ml DAPI (4′,6-diamidine-2′-phenylindole dihydrochloride) in 100% methanol for 15 minutes at 37° C. and/or 3′-OH ends resulting from DNA fragmentation were detected with the TUNEL (terminal deoxynucleotidyl transferase-mediated dUTP-X 3′ nick end-labeling) technique, and then viewed using a Zeiss ICM 405 microscope. Cells whose nucleus contained clearly condensed or fragmented chromatin or stained for fragmented DNA in the TUNEL assay were scored as apoptotic. Data are presented as percent cells undergoing apoptosis.

LnCaP = experiment: Bioassay for apoptosis (apoptotic EC50); format: cell-based, human; settings: for apoptotic EC50: unit not given, in µg/mL; for EC50: Homo sapiens, unit inferred
Method: as §1

MDA-MB-435 = experiment: Bioassay for apoptosis (apoptotic EC50); format: cell-based, human; settings: for apoptotic EC50: unit not given, in µg/mL
Method: as §1

HL-60 = experiment: Bioassay for apoptosis (apoptotic EC50); format: cell-based, human; settings: for apoptotic EC50: HL-60, unit not given, in µg/mL; for EC50: Homo sapiens, HL-60, HL-60, unit inferred
Method: as §1

PC-3 = experiment: Bioassay for apoptosis (apoptotic EC50); format: cell-based, human; settings: for EC50: Homo sapiens, PC-3, PC-3, unit inferred
Method: as §1

C-170 = experiment: Bioassay for apoptosis (apoptotic EC50); format: cell-based, human; settings: for apoptotic EC50: C-170, unit not given, in µg/mL; for EC50: Homo sapiens, C170, C-170, unit inferred
Method: as §1

ME-180 = experiment: Bioassay for apoptosis (apoptotic EC50); format: cell-based, human; settings: for apoptotic EC50: ME-180, unit not given, in µg/mL; for EC50: Homo sapiens, ME-180, ME-180, unit inferred
Method: as §1

MDA-MB-231 = experiment: Bioassay for apoptosis (apoptotic EC50); format: cell-based, human; settings: for EC50: Homo sapiens, MDA-MB-231, MDA-MB-231, unit inferred
Method: as §1

MCF-7 = experiment: Bioassay for apoptosis (apoptotic EC50); format: cell-based, human; settings: for apoptotic EC50: MCF-7, unit not given, in µg/mL; for EC50: Homo sapiens, MCF7, MCF-7, unit inferred
Method: as §1

RL-95-2 = experiment: Bioassay for apoptosis (apoptotic EC50); format: cell-based, human; settings: for EC50: Homo sapiens, RL95-2, RL-95-2, unit inferred
Method: as §1

MCF-10A = experiment: Bioassay for apoptosis (apoptotic EC50); format: cell-based; settings: Homo sapiens, unit inferred
Method: as §1

HMEC = experiment: Bioassay for apoptosis (apoptotic EC50); format: cell-based; settings: Homo sapiens, unit inferred
Method: as §1

DU-145 = experiment: Bioassay for apoptosis (apoptotic EC50); format: cell-based, human
Method: as §1

A-549 = experiment: Bioassay for apoptosis (apoptotic EC50); format: cell-based, human; settings: unit not given, in µg/mL
Method: as §1

Jurkat = experiment: Bioassay for apoptosis (apoptotic EC50); format: cell-based, human; settings: unit not given, in µg/mL
Method: as §1

HT-29 = experiment: Bioassay for apoptosis (apoptotic EC50); format: cell-based, human; settings: Homo sapiens, unit inferred
Method: as §1

[2] = system: breast tumor cell line MDA-MB-435; experiment: Bioassay for DNA synthesis arrest, naturally occurring vitamin E compounds; format: cell-based, human; settings: Table 1
Method: Table 1 provides tumor growth inhibitory properties of naturally occurring vitamin E compounds against the breast tumor cell line MDA-MB-435.
To assay DNA synthesis, all cells were used at 2.5×10^5/ml. Cells were treated with each of the compounds at concentrations of 0.01, 0.1, 1, 5, 10 and 20 μg/mL and 200 μl of each treatment group were plated in quadruplicate in a 96 well culture plate (Corning, Corning N.Y.). Experiments were done in duplicate, one plate used for viability testing and the other plate for examination of ^3H-TdR uptake to monitor DNA synthesis. Plates were cultured for 48 hours at 37° C., 5% CO2. Eight hours prior to the end of incubation, ^3H-TdR was added to one of the duplicate plates and incubation continued for 8 hours.
The cells were then harvested (trypsinization was required to harvest adherent cells), and isotope uptake was determined as counts per minute (cpm). For viability studies, at the end of the incubation, the cells were removed from the wells and viability checked by the Trypan Blue Exclusion method. Percent viability and percent DNA synthesis in comparison to untreated or vehicle treated cells of each treatment group were calculated.

[3] = Homo sapiens, MDA-MB-435, MDA-MB-435, unit inferred, read-out: apoptotic EC50
[4] = MDA-MB-435, Table 1, read-out: EC50 for Apoptosis

SMILES: Cc1c(C)c2c(c(C)c1OCCCC(=O)O)CC[C@@](C)(CCC[C@H](C)CCC[C@H](C)CCCC(C)C)O2 [Compound 3, 2,5,7,8-tetramethyl-(2R-(4R,8R,12-trimethyltridecyl)chroman-6-yloxy) butyric acid]
- growth inhibitory (apoptotic inducing) properties specific for human cancer cells [1]: effective
- apoptotic EC50 (LnCaP): 5-10
- apoptotic EC50 (MDA-MB-435; MDA-MB-435): 5-10
- apoptotic EC50 (HL-60): 10-20
- apoptotic EC50 (PC-3; PC-3, unit not given, in µg/mL): 5-10
- apoptotic EC50 (C-170): 10-20
- apoptotic EC50 (ME-180): 10-20
- apoptotic EC50 (MDA-MB-231; MDA-MB-231, unit not given, in µg/mL): 5-10
- apoptotic EC50 (MCF-7): 20-30
- apoptotic EC50 (RL-95-2; RL-95-2, unit not given, in µg/mL): 10-20

SMILES: Cc1c(OCC(=O)O)cc2c(c1C)O[C@](C)(CCC[C@H](C)CCC[C@H](C)CCCC(C)C)CC2 [Compound 8, 2,7,8-trimethyl-(2R-(4R,8R,12-trimethyltridecyl)chroman-6-yloxy)acetic acid]
- growth inhibitory (apoptotic inducing) properties specific for human cancer cells [1]: effective
- EC50 (MCF-10A): > 20 µg/mL
- EC50 (HMEC): > 20 µg/mL
- EC50 (LnCaP): 5 to 10 µg/mL (≈ 10.5 to 21.1 µM)
- EC50 (MDA-MB-435; [3]): 5 to 10 µg/mL
- EC50 (HL-60): 10 to 20 µg/mL (≈ 21.1 to 42.1 µM)
- EC50 (PC-3): 5 to 10 µg/mL (≈ 10.5 to 21.1 µM)
- EC50 (C-170): 10 to 20 µg/mL (≈ 21.1 to 42.1 µM)
- EC50 (ME-180): 5 to 10 µg/mL (≈ 10.5 to 21.1 µM)
- EC50 (MDA-MB-231): 5 to 10 µg/mL (≈ 10.5 to 21.1 µM)
- EC50 (MCF-7): 10 to 20 µg/mL (≈ 21.1 to 42.1 µM)
- EC50 (RL-95-2): 1 to 5 µg/mL (≈ 2.11 to 10.5 µM)

SMILES: Cc1cc(OCC(=O)O)cc2c1O[C@](C)(CCC[C@H](C)CCC[C@H](C)CCCC(C)C)CC2 [Compound 9, 2,8-dimethyl-(2R-(4R,8R,12-trimethyltridecyl)chroman-6-yloxy)acetic acid]
- growth inhibitory (apoptotic inducing) properties specific for human cancer cells [1]: effective
- EC50 (MCF-10A): > 20 µg/mL
- EC50 (HMEC): > 20 µg/mL
- EC50 (LnCaP): 5 to 10 µg/mL (≈ 10.9 to 21.7 µM)
- EC50 (MDA-MB-435; [3]): 5 to 10 µg/mL
- EC50 (HL-60): 10 to 20 µg/mL (≈ 21.7 to 43.4 µM)
- EC50 (PC-3): 5 to 10 µg/mL (≈ 10.9 to 21.7 µM)
- EC50 (C-170): > 20 µg/mL
- EC50 (ME-180): 5 to 10 µg/mL (≈ 10.9 to 21.7 µM)
- EC50 (MDA-MB-231): 5 to 10 µg/mL (≈ 10.9 to 21.7 µM)
- EC50 (MCF-7): 10 to 20 µg/mL (≈ 21.7 to 43.4 µM)
- EC50 (RL-95-2): 5 to 10 µg/mL (≈ 10.9 to 21.7 µM)

SMILES: Cc1c(C)c2c(c(C)c1OCC(N)=O)CC[C@@](C)(CCC[C@H](C)CCC[C@H](C)CCCC(C)C)O2 [Compound 10, 2,5,7,8-tetramethyl-(2R-(4R,8R,12-trimethyltridecyl)chroman-6-yloxy)acetamide]
- EC50 (MCF-10A): > 20 µg/mL
- EC50 (HMEC): > 20 µg/mL
- EC50 (LnCaP): > 20 µg/mL
- EC50 (MDA-MB-435; [3]): > 20 µg/mL
- EC50 (HL-60): > 20 µg/mL
- EC50 (C-170): > 20 µg/mL
- EC50 (ME-180): > 20 µg/mL
- EC50 (MDA-MB-231): > 20 µg/mL
- EC50 (MCF-7): > 20 µg/mL
- EC50 (RL-95-2): > 20 µg/mL

SMILES: COC(=O)COc1c(C)c(C)c2c(c1C)CC[C@@](C)(CCC[C@H](C)CCC[C@H](C)CCCC(C)C)O2 [Compound 11, Methyl 2,5,7,8-tetramethyl-(2R-(4R,8R,12-trimethyltridecyl)chroman-6-yloxy)acetate]
- EC50 (MCF-10A): > 20 µg/mL
- EC50 (HMEC): > 20 µg/mL
- EC50 (LnCaP): > 20 µg/mL
- EC50 (MDA-MB-435; [3]): > 20 µg/mL
- EC50 (HL-60): > 20 µg/mL
- EC50 (PC-3): > 20 µg/mL
- EC50 (C-170): > 20 µg/mL
- EC50 (ME-180): > 20 µg/mL
- EC50 (MDA-MB-231): > 20 µg/mL
- EC50 (MCF-7): > 20 µg/mL
- EC50 (RL-95-2): > 20 µg/mL

SMILES: Cc1c(C)c2c(c(C)c1OCC(=O)N(CC(=O)O)CC(=O)O)CC[C@@](C)(CCC[C@H](C)CCC[C@H](C)CCCC(C)C)O2 [Compound 12]
- growth inhibitory (apoptotic inducing) properties specific for human cancer cells [1]: effective
- EC50 (MCF-10A): > 20 µg/mL
- EC50 (HMEC): > 20 µg/mL
- EC50 (LnCaP): 20 to 30 µg/mL (≈ 33.1 to 49.7 µM)
- EC50 (MDA-MB-435; [3]): 5 to 10 µg/mL
- EC50 (HL-60): 20 to 30 µg/mL (≈ 33.1 to 49.7 µM)
- EC50 (PC-3): 10 to 20 µg/mL (≈ 16.6 to 33.1 µM)
- EC50 (C-170): 10 to 20 µg/mL (≈ 16.6 to 33.1 µM)
- EC50 (ME-180): 5 to 10 µg/mL (≈ 8.28 to 16.6 µM)
- EC50 (MDA-MB-231): 5 to 10 µg/mL (≈ 8.28 to 16.6 µM)
- EC50 (MCF-7): 5 to 10 µg/mL (≈ 8.28 to 16.6 µM)
- EC50 (RL-95-2): 5 to 10 µg/mL (≈ 8.28 to 16.6 µM)

SMILES: Cc1c(C)c2c(c(C)c1OCC(=O)O)CCC(C)(C)O2 [Compound 14, 2-(2,5,7,8-pentamethylchroman-6-yloxy)acetic acid]
- EC50 (MCF-10A): > 20 µg/mL
- EC50 (HMEC): > 20 µg/mL
- EC50 (LnCaP): > 20 µg/mL
- EC50 (MDA-MB-435; [3]): > 20 µg/mL
- EC50 (HL-60): > 20 µg/mL
- EC50 (PC-3): > 20 µg/mL
- EC50 (C-170): > 20 µg/mL
- EC50 (ME-180): > 20 µg/mL
- EC50 (MDA-MB-231): > 20 µg/mL
- EC50 (MCF-7): > 20 µg/mL
- EC50 (RL-95-2): > 20 µg/mL

SMILES: Cc1c(C)c2c(c(C)c1OCCCN)CC[C@@](C)(CCC[C@H](C)CCCC(C)CCCC(C)C)O2.Cl (stereo partly drawn) [Compound 19]
- growth inhibitory (apoptotic inducing) properties specific for human cancer cells [1]: effective
- apoptotic EC50 (LnCaP): 5-10
- apoptotic EC50 (DU-145; unit not given, in µg/mL): 5-10
- apoptotic EC50 (A-549): 20-30
- apoptotic EC50 (Jurkat): 10-20
- apoptotic EC50 (MDA-MB-435; MDA-MB-435): 10-20
- apoptotic EC50 (HL-60): 10-20
- apoptotic EC50 (C-170): 1-5
- apoptotic EC50 (ME-180): 1-5
- apoptotic EC50 (MCF-7): 10-20

SMILES: CCCCCCC[C@]1(C)CCc2c(C)c(OCC(=O)O)c(C)c(C)c2O1 [Compound 23, 2,5,7,8-tetramethyl-(2R-(heptyl)chroman-6-yloxy)acetic acid]
- EC50 (MCF-10A): > 20 µg/mL
- EC50 (DU-145; Homo sapiens, unit inferred): > 20 µg/mL
- EC50 (MDA-MB-435; [3]): > 20 µg/mL
- EC50 (HT-29): > 20 µg/mL
- EC50 (PC-3): > 20 µg/mL
- EC50 (MCF-7): > 20 µg/mL

SMILES: Cc1c(O)cc2c(c1C)O[C@](C)(CCC[C@H](C)CCC[C@H](C)CCCC(C)C)CC2 [γ-tocopherol, reference compound]
- EC50 (MDA-MB-435; [4]): 300 µM
- EC50 [2]: > 400 µM

SMILES: CC(C)=CCC/C(C)=C/CC/C(C)=C/CC[C@]1(C)CCc2cc(O)c(C)c(C)c2O1 [γ-tocotrienol, reference compound]
- EC50 (MDA-MB-435; [4]): 10 µM
- EC50 [2]: 10 µM

SMILES: Cc1cc(O)cc2c1O[C@](C)(CCC[C@H](C)CCC[C@H](C)CCCC(C)C)CC2 [δ-tocopherol, reference compound]
- EC50 (MDA-MB-435; [4]): 100 µM
- EC50 [2]: 150 µM

SMILES: CC(C)=CCC/C(C)=C/CC/C(C)=C/CC[C@]1(C)CCc2cc(O)cc(C)c2O1 [δ-tocotrienol, reference compound]
- EC50 (MDA-MB-435; [4]): 5 µM
- EC50 [2]: 5 µM
